Data published in ChEMBL document CHEMBL5034037, “Synthesis, Characterization, and Preclinical Evaluation of a Small-Molecule Prostate-Specific Membrane Antigen-Targeted Monomethyl Auristatin E Conjugate” (J Med Chem, 2021).
The source made the active and inactive calls. The rule behind the calls is not given here. *1 amine or outer side, *2 acyl side, *3 side chain or, on linkers, in order; H or OH if unused. Where a SMILES comes first, the peptide text is derived from it. [ ]: non-standard residue; d: D form. The star is where a group is joined. GluureaLys(ε-3-ClBenzyl) = O=C(O)CC[C@H](NC(=O)N[C@@H](CCCCN(Cc1cccc(Cl)c1)*)C(=O)O)C(=O)O; Dolaproine = CO[C@@H]([C@@H]1CCCN1)[C@@H](C)C(=O)O; Dil = CC[C@H](C)[C@H](NC)[C@@H](CC(=O)O)OC; X1 = O=C(CCCc1cn(CCCN[*:1])nn1)[*:2]; PABC = O=C(OCc1ccc(N[*:1])cc1)[*:2]; X2 = C[C@@H](N*)[C@@H](O)c1ccccc1; Cit = NC(=O)NCCC[C@H](N)C(=O)O; Suc = O=C(CCC(=O)[*:2])[*:1]; NMeV = CN[C@H](C(=O)O)C(C)C; Ahx = NCCCCCC(=O)O

What was measured:
[1] = Toxicity in rat assessed as morphological changes in cerebral membrane at 150 to 225 microg/kg, iv; details: in vivo, dose 150-225 µg/kg
[2] = system: Salmonella typhimurium; test: Mutagenecity in Salmonella typhimurium TA100 without metabolic activation system at 10000 ug/ml by Ames test; assay type: toxicity, organism-based; details: salmonella enterica subsp. enterica serovar typhimurium; dose 10000 µg/ml
[3] = Toxicity in rabbit assessed as morphological changes in abdominal cavity at 81 to 122 microg/kg, iv; design: species or system Oryctolagus cuniculus; details: in vivo, dose 81-122 µg/kg
[4] = system: Salmonella typhimurium; test: Mutagenecity in Salmonella typhimurium TA100 in presence of metabolic activation system at 10000 ug/ml by Ames test; assay type: toxicity, organism-based; details: salmonella enterica subsp. enterica serovar typhimurium; dose 10000 µg/ml
[5] = system: PC-3; test: Induction of intracellular reactive oxygen species production in human PC-3 cells incubated for 1 hr measured at CC50 concentration by amperometric method; assay type: functional, cell-based
[6] = Ratio of AUC (t to infinity) to AUC (0 to infinity) in rabbit plasma at 0.81 mg/kg, iv; assay type: ADME, organism-based, Oryctolagus cuniculus; details: in vivo
[7] = system: Salmonella typhimurium; test: Mutagenecity in Salmonella typhimurium TA98 without metabolic activation system at 10 ug/ml by Ames test; assay type: toxicity, organism-based; details: salmonella enterica subsp. enterica serovar typhimurium; dose 10 µg/ml
[8] = Mean residence time (0 to t) in Wistar rat at 1.5 mg/kg, iv; assay type: ADME, organism-based; details: in vivo
[9] = system: Salmonella typhimurium; test: Mutagenecity in Salmonella typhimurium TA98 in presence of metabolic activation system at 10 ug/ml by Ames test; assay type: toxicity, organism-based; details: salmonella enterica subsp. enterica serovar typhimurium; dose 10 µg/ml
[10] = system: PC-3; test: Cytotoxicity against human PC-3 cells not expressing PMSA measured using MTT assay; assay type: functional
[11] = target: T1, Cytochrome P450 2D6 (Homo sapiens, UniProt P10635); test: Drug metabolism assessed as human liver microsome CYP2D6-mediatd metabolism; assay type: ADME; details: microsomes
[12] = target: T2, Cytochrome P450 2C8 (Homo sapiens, UniProt P10632); test: Drug metabolism assessed as human liver microsome CYP2C8-mediatd metabolism; assay type: ADME; details: microsomes
T2 sequence (P10632 whole entry): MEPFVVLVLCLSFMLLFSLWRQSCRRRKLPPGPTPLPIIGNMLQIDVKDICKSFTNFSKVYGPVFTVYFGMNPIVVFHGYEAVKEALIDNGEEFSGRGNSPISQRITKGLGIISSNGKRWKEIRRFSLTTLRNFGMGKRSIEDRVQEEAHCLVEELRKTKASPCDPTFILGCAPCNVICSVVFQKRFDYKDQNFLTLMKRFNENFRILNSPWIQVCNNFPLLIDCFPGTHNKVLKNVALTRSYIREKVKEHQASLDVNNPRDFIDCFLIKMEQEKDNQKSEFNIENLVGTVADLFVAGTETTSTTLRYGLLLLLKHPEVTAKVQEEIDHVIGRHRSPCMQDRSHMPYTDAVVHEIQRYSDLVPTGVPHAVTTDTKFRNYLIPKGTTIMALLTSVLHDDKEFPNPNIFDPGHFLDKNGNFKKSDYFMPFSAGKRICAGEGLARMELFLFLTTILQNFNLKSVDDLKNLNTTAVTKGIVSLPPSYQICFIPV

[13] = Toxicity in rabbit assessed as morphological changes in spleen pulp at 81 to 122 microg/kg, iv; assay type: tissue-based, Oryctolagus cuniculus; details: in vivo, dose 81-122 µg/kg
[14] = Toxicity in rabbit assessed as morphological changes in brain sulcus at 81 to 122 microg/kg, iv; assay type: tissue-based, Oryctolagus cuniculus; details: in vivo, dose 81-122 µg/kg
[15] = system: Salmonella typhimurium; test: Mutagenecity in Salmonella typhimurium TA100 in presence of metabolic activation system at 1000 ug/ml by Ames test; assay type: toxicity, organism-based; details: salmonella enterica subsp. enterica serovar typhimurium; dose 1000 µg/ml
[16] = Toxicity in rabbit assessed as morphological changes in mucosa of thyroid gland at 81 to 122 microg/kg, iv; assay type: tissue-based, Oryctolagus cuniculus; details: in vivo, dose 81-122 µg/kg
[17] = Toxicity in rabbit assessed as local irritation in testes at 81 to 122 microg/kg, iv; design: species or system Oryctolagus cuniculus; details: in vivo, dose 81-122 µg/kg
[18] = target: Cytochrome P450 2C9 (Homo sapiens, UniProt P11712); test: Inhibition of CYP2C9 in human liver microsome using tolbutamide as substrate; assay type: ADME, microsomes
[19] = Stability of the compound in human liver microsome; assay type: ADME; details: microsomes
[20] = Toxicity in rabbit assessed as morphological changes in brain ventricle at 81 to 122 microg/kg, iv; assay type: tissue-based, Oryctolagus cuniculus; details: in vivo, dose 81-122 µg/kg
[21] = Toxicity in rabbit assessed as morphological changes in testes at 81 to 122 microg/kg, iv; design: species or system Oryctolagus cuniculus; details: in vivo, dose 81-122 µg/kg
[22] = Half life in Wistar rat at 1.5 mg/kg, iv; assay type: ADME, organism-based; details: in vivo
[23] = target: T1, Cytochrome P450 2D6; test: Inhibition of CYP2D6 in human liver microsome using dextromethorphan as substrate; assay type: ADME, microsomes
[24] = system: Salmonella typhimurium; test: Mutagenecity in Salmonella typhimurium TA98 in presence of metabolic activation system at 100 ug/ml by Ames test; assay type: toxicity, organism-based; details: salmonella enterica subsp. enterica serovar typhimurium; dose 100 µg/ml
[25] = Clearance in rabbit at 0.81 mg/kg, iv; assay type: ADME, organism-based, Oryctolagus cuniculus; details: in vivo
[26] = Toxicity in mouse assessed as change in body weight at 0.3 mg/kg, iv measured after 20 days; assay type: organism-based; details: in vivo, 480 h, time 20 day
[27] = Toxicity in rat assessed as morphological changes in heart valve at 150 to 225 microg/kg, iv; assay type: tissue-based; details: in vivo, dose 150-225 µg/kg
[28] = Stability of the compound in mouse liver microsome; assay type: ADME; details: microsomes
[29] = Toxicity in rat assessed as morphological changes in kidney at 150 to 225 microg/kg, iv; assay type: tissue-based; details: in vivo, dose 150-225 µg/kg
[30] = Toxicity in rat assessed as morphological changes in spleen at 150 to 225 microg/kg, iv; assay type: tissue-based; details: in vivo, dose 150-225 µg/kg
[31] = Toxicity in rabbit assessed as morphological changes in cerebral membrane at 81 to 122 microg/kg, iv; design: species or system Oryctolagus cuniculus; details: in vivo, dose 81-122 µg/kg
[32] = Toxicity in rat assessed as morphological changes in duodenum at 150 to 225 microg/kg, iv; assay type: tissue-based; details: in vivo, dose 150-225 µg/kg
[33] = Elimination rate constant in Wistar rat at 1.5 mg/kg, iv; assay type: ADME, organism-based; details: in vivo
[34] = Ratio of AUC (t to infinity) to AUC (0 to infinity) in rat at 1.5 mg/kg, iv; assay type: ADME, organism-based; details: in vivo
[35] = Toxicity in mouse xenografted with human 22Rv1 cells assessed as early fell at 0.6 mg/kg, ip daily treated for 5 days after 18 days of tumor implantation measured upto 10 days; assay type: organism-based, CWR22R; details: in vivo, 120 h, time 5 day
[36] = Toxicity in rabbit assessed as morphological changes in pancreas at 81 to 122 microg/kg, iv; assay type: tissue-based, Oryctolagus cuniculus; details: in vivo, dose 81-122 µg/kg
[37] = system: Salmonella typhimurium; test: Mutagenecity in Salmonella typhimurium TA98 without metabolic activation system at 100 ug/ml by Ames test; assay type: toxicity, organism-based; details: salmonella enterica subsp. enterica serovar typhimurium; dose 100 µg/ml
[38] = target: Cytochrome P450 3A4 (Homo sapiens, UniProt P08684); test: Drug metabolism assessed as human liver microsome CYP3A4-mediatd metabolism; assay type: ADME; details: microsomes
[39] = Clearance in Wistar rat at 1.5 mg/kg, iv; assay type: ADME, organism-based; details: in vivo

T1 sequence (P10635 whole entry): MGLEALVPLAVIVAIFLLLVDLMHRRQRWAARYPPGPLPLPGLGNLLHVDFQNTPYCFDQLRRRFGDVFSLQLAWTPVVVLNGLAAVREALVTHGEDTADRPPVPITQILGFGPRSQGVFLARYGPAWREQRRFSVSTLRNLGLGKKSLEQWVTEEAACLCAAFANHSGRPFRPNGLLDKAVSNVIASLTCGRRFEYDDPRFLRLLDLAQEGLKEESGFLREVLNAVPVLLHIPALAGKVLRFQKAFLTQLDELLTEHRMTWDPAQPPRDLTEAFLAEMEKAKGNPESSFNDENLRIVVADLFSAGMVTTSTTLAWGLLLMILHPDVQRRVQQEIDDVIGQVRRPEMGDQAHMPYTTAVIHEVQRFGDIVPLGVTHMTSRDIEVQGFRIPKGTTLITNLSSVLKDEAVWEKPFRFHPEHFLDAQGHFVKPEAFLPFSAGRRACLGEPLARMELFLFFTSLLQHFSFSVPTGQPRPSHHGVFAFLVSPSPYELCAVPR
Sequence of Cytochrome P450 2C9 (P11712 whole entry): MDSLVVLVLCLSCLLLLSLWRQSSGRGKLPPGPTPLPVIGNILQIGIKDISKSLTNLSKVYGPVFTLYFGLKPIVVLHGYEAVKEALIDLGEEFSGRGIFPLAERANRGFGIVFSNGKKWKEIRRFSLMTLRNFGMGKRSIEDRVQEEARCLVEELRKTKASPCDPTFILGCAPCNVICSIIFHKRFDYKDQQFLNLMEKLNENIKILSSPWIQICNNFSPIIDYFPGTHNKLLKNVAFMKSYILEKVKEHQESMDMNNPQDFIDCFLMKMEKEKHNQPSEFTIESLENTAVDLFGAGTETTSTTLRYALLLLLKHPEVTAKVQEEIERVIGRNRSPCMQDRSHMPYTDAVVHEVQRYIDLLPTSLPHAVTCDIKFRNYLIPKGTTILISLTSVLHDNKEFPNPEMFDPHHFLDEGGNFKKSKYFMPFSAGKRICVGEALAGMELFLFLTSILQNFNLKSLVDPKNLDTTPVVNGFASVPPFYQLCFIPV
Sequence of Cytochrome P450 3A4 (P08684 whole entry): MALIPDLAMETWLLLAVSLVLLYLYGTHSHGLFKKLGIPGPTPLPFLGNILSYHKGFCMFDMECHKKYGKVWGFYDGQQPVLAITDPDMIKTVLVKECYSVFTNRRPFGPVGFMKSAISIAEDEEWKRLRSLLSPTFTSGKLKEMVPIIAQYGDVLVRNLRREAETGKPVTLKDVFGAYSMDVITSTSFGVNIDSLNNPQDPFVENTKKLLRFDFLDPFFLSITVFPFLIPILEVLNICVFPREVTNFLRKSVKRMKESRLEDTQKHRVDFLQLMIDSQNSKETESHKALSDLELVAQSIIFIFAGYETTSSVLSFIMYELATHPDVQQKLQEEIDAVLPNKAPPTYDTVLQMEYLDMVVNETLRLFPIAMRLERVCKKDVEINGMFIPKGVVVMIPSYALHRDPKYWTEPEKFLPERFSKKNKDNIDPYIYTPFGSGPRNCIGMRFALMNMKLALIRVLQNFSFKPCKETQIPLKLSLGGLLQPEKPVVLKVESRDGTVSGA

## CC[C@H](C)[C@@H]([C@@H](CC(=O)N1CCC[C@H]1[C@H](OC)[C@@H](C)C(=O)N[C@H](C)[C@@H](O)c1ccccc1)OC)N(C)C(=O)[C@@H](NC(=O)[C@H](C(C)C)N(C)C(=O)OCc1ccc(NC(=O)[C@H](CCCNC(N)=O)NC(=O)[C@@H](NC(=O)CCCc2cn(CCCNC(=O)[C@H](Cc3ccc(O)cc3)NC(=O)[C@H](Cc3ccccc3)NC(=O)CCC(=O)NCCCCCC(=O)N(CCCC[C@H](NC(=O)N[C@@H](CCC(=O)O)C(=O)O)C(=O)O)Cc3cccc(Cl)c3)nn2)C(C)C)cc1)C(C)C ({GluureaLys(ε-3-ClBenzyl)-Ahx-Suc}-FY[X1]V[Cit][PABC][NMeV]V[Dil][Dolaproine]-X2)
[1]
  Activity: Non-Toxic
[2]
  Activity: Non-Toxic
[3]
  Activity: Non-Toxic
[4]
  Activity: Non-Toxic
[5]
  Activity: Active
[6]
  Ratio: 13%
[7]
  Activity: Non-Toxic
[8]
  MRT last: 3.8 h
[9]
  Activity: Non-Toxic
[10]
  CC50: 27 nM
[11]
  Drug metabolism: Metabolite_Notdetected
[12]
  Drug metabolism: Metabolite_Notdetected
[13]
  Activity: Non-Toxic
[14]
  Activity: Non-Toxic
[15]
  Activity: Non-Toxic
[16]
  Activity: Non-Toxic
[17]
  Activity: Non-Toxic
[18]
  IC50: > 25 µM
[19]
  Stability: Unstable
[20]
  Activity: Non-Toxic
[21]
  Activity: Non-Toxic
[22]
  half-life: 282 min
[23]
  IC50: > 25 µM
[24]
  Activity: Non-Toxic
[25]
  clearance: 0.4 mL/min/kg
[26]
  Activity: Non-Toxic
[27]
  Activity: Non-Toxic
[28]
  Stability: Unstable
[29]
  Activity: Non-Toxic
[30]
  Activity: Non-Toxic
[31]
  Activity: Non-Toxic
[32]
  Activity: Non-Toxic
[33]
  k el: 4.17e-05 s⁻¹
[34]
  Ratio: 14%
[35]
  Activity: Toxic
[36]
  Activity: Non-Toxic
[37]
  Activity: Non-Toxic
[38]
  Drug metabolism: Metabolite_Notdetected
[39]
  clearance: 0.317 mL/min/kg
